According to US8175815B2, “Method for assessing absorption properties of low solubility compounds” (F. Hoffmann-La Roche AG, priority 2006, dated 2012):

How the values were obtained:
[1] = Excipient Effect: receiver UV AUC ratio in Double-Sink PAMPA with saturated donor (second embodiment); type: in vitro ADME; settings: pH 5.0; receiver AUC with excipient / without excipient
Method: The compounds are presented as DMSO solutions with a concentration of about 10 mM. They are further diluted in a universal aqueous buffer and adjusted to pH 5.0, 6.2, and 7.4 with 0.5 M NaOH. The background amount of DMSO in the aqueous solution is 0.5% v/v. Most of the compounds are insoluble in water, where they form saturated solutions with precipitation present. The calculated concentration of the compounds in the buffer is about 50 μM, but because of precipitation, the actual concentrations in the aqueous media must be lower than that, and are unknown. Saturated (non-filtered) solutions are transferred to the donor compartment of the PAMPA sandwich pre-loaded with magnetic stirrers. The filter of the PAMPA filter plate (the acceptor compartment of the PAMPA sandwich) is covered with GIT-lipid and filled with acceptor sink buffer (ASB). […]
Thus, it's not surprising that the absorption behavior for this compound at pH 5.0 is governed by the permeability and that the presence of the excipient in the donor compartment decreases the permeability of Butacaine. The second embodiment of the method of the invention allows detection of this behavior without separate measurements of the solubility and permeability constants, but by simple comparison of the compound concentrations (UV absorbance) in the receiver compartments.

[2] = PAMPA, 30 min, 50 μM
[3] = PAMPA, pH 5
[4] = Double-Sink PAMPA permeability with and without excipients
[5] = equilibrium solubility-pH, direct-UV microtitre plate (μSOL Evolution) with and without excipients; settings: for solubility at 18 h / pKa at 18 h: aqueous universal buffer (pION); for solubility at 18 h: 25 °C, kinetic from dmso stock; for pKa at 18 h: saturated drug suspension, pKa^APP ± SD

Structure (SMILES): CCCCN(CCCC)CCCOC(=O)c1ccc(N)cc1 [butacaine]
- excipient Effect [1]: < 1
- PABL 0 mM NaTC [2]: 713
- PABL 3 mM NaTC [2]: 954
- PABL 15 mM NaTC [2]: 13
- refined ABL thickness [2]: exceeding 75 μm
- net flux effect due to 1% HP-β-CD [3]: loses at all pH values
- MW*/MW ([4]; 3 mM NaTC (second value)): 2
- MW*/MW ([4]; 15 mM NaTC (third value)): 30000
- MW*/MW ([4]; apparent/true molecular weight, 40 μm ABL assumed, 0 mM NaTC (first value)): 4
- solubility at 18 h ([5]; aqueous with cosolvent or surfactant or cyclodextrin): 152 µg/mL
- solubility at 18 h ([5]; pH 5, aqueous buffer): > 50 µM
- pKa at 18 h ([5]; apparent ionization constant in saturated solution, excipient none): 8.8 ± 0.2
- pKa at 18 h ([5]; apparent ionization constant, excipient 3 mM NaTC): 8.9 ± 0.2
- pKa at 18 h ([5]; apparent ionization constant, excipient 15 mM NaTC): 8.5 ± 0.1
- pKa at 18 h ([5]; apparent ionization constant, excipient 0.1M KCl): 8.3 ± 0.3
- pKa at 18 h ([5]; apparent ionization constant, excipient 0.2M KCl): 8.6 ± 0.1
- pKa at 18 h ([5]; apparent ionization constant, excipient 1% HP-b-CD): 8.1 ± 0.1
- pKa at 18 h ([5]; apparent ionization constant, excipient 1% NMP): 8.5 ± 0.1
- pKa at 18 h ([5]; apparent ionization constant, excipient 1% PEG400): 8.5 ± 0.1
- pKa at 18 h ([5]; apparent ionization constant, excipient 1% PG): 8.2 ± 0.1
- pKa at 18 h ([5]; apparent ionization constant, excipient 5% PEG400): 8.5
- pKa at 18 h ([5]; apparent ionization constant, excipient 5% PG): 8.5 ± 0.2
- pKa at 18 h ([5]; apparent ionization constant, excipient […] HP-b-CD): 8.5 ± 0.1
- pKa at 18 h ([5]; apparent ionization constant, excipient […] NMP): 8.8 ± 0.1
- pKa at 18 h ([5]; apparent ionization constant, excipient […] PEG400): 8.5
- pKa at 18 h ([5]; apparent ionization constant, excipient […] PG): 8.8 ± 0.1
- So ± SD ([5]; excipient 3 mM NaTC): 3.1 ± 1.6 µg/mL
- So^APP ± SD ([5]; excipient 3 mM NaTC): 50 ± 10 µg/mL
- So ± SD ([5]; excipient 15 mM NaTC): 2.3 ± 0.4 µg/mL
- So^APP ± SD ([5]; excipient 15 mM NaTC): 96 ± 4 µg/mL
- So ± SD ([5]; excipient 0.1M KCl): 1.3 ± 0.8 µg/mL
- So^APP ± SD ([5]; excipient 0.1M KCl): 83 ± 17 µg/mL
- So ± SD ([5]; excipient 0.2M KCl): 2.5 ± 0.2 µg/mL
- So^APP ± SD ([5]; excipient 0.2M KCl): 78 ± 2 µg/mL
- So ± SD ([5]; excipient 1% HP-b-CD): 1.5 ± 0.4 µg/mL
- So^APP ± SD ([5]; excipient 1% HP-b-CD): 141 ± 7 µg/mL
- So ± SD ([5]; excipient 1% NMP): 1.9 ± 0.5 µg/mL
- So^APP ± SD ([5]; excipient 1% NMP): 71 ± 5 µg/mL
- So ± SD ([5]; excipient 1% PEG400): 2.8 ± 0.4 µg/mL
- So^APP ± SD ([5]; excipient 1% PEG400): 107 ± 2 µg/mL
- So ± SD ([5]; excipient 1% PG): 0.9 ± 0.2 µg/mL
- So^APP ± SD ([5]; excipient 1% PG): 69 ± 5 µg/mL
- So ± SD ([5]; excipient 5% PEG400): 2.8 µg/mL
- So^APP ± SD ([5]; excipient 5% PEG400): 107 µg/mL
- So ± SD ([5]; excipient 5% PG): 1.5 ± 0.5 µg/mL
- So^APP ± SD ([5]; excipient 5% PG): 66 ± 9 µg/mL
- So ± SD ([5]; excipient […] HP-b-CD): 2.0 ± 0.3 µg/mL
- So^APP ± SD ([5]; excipient […] HP-b-CD): 79 ± 4 µg/mL
- So ± SD ([5]; excipient […] NMP): 2.1 ± 0.5 µg/mL
- So^APP ± SD ([5]; excipient […] NMP): 47 ± 3 µg/mL
- So ± SD ([5]; excipient […] PEG400): 3.6 µg/mL
- So^APP ± SD ([5]; excipient […] PEG400): 151 µg/mL
- So ± SD ([5]; excipient […] PG): 2.3 ± 0.5 µg/mL
- So^APP ± SD ([5]; excipient […] PG): 51 ± 4 µg/mL
- So ± SD ([5]; excipient none): 1.9 ± 0.7 µg/mL
- So^APP ± SD ([5]; excipient none): 40 ± 6 µg/mL
- So^APP ± SD ([5]; excipient none, listed as Butacaine): 40 µg/mL
- salt limit (sdiff 3-4 approximation) ([5]; three orders of magnitude above excipient-free intrinsic solubility): 39.8 mg/mL
